Results on two molecules are retold here after patent publication US20170152258A9, “Substituted Pyridopyrazines as Syk Inhibitors” (HUTCHISON MEDIPHARMA LIMITED, priority 2012, published 2017).

What is called IC50 is the midpoint of a concentration-inhibition curve.

Where “and” joins values, the source holds several entries; their conditions need not be identical. Equal entries are not always repeated.

One assay has as its target Syk kinase (Homo sapiens, UniProt P43405). Briefly: SYK Enzymatic Assay (Z-LYTE Tyr 2 peptide). It counts as biochemical. The note with it: 8 concentrations 1 μM down to 0.0003 μM. The gist of the method:
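Z-LYTE format using Tyr 2 peptide. After the 1 h room-temperature kinase reaction, development reagent was added for 1 h, then stop reagent. Fluorescence was read at 445 and 520 nm. Compounds were tested at 8 concentrations, 1 μM down to 0.0003 μM (1:3 dilutions).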

In the next assay the target is T1, Flt-3 (Homo sapiens, UniProt P36888).
T1 sequence (P36888 27-993): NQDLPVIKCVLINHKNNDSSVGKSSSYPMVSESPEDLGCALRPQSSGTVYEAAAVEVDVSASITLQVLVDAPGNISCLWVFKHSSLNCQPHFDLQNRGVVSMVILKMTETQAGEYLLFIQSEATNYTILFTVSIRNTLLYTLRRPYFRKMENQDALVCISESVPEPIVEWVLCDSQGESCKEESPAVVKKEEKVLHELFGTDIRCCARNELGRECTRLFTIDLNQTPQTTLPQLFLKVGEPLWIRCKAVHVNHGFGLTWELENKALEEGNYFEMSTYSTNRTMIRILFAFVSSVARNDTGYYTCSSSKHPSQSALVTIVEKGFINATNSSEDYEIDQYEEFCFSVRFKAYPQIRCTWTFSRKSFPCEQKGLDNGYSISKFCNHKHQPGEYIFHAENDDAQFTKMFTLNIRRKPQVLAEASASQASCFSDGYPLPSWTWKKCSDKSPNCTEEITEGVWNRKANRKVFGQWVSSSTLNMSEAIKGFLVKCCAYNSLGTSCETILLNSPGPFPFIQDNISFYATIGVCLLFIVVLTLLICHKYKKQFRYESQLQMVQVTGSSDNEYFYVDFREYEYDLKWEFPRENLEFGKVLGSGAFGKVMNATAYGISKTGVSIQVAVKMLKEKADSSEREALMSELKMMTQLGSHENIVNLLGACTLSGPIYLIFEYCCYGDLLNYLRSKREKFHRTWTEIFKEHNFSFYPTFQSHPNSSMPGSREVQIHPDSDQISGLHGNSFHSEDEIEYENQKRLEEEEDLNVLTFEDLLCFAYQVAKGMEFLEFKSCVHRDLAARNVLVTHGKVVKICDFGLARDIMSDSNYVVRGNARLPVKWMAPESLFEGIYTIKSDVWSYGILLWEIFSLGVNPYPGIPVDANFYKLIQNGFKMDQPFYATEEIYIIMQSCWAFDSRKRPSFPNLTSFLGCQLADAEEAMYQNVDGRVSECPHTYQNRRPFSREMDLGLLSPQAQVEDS
Briefly: Z-Lyte Kinase Assay of Flt-3. The note with it: Flt3 kinase. It counts as biochemical. Here is the method: Z-Lyte Kinase Assay of Flt-3:
Serially dilute the test compounds to 4 folds of the concentrations desired, keeping the DMSO concentration at 8%. The final concentrations were 3, 1, 0.33, 0.11, 0.037, 0.012, 0.004, 0.0014 μM, and the final concentration of DMSO was 2%.
Prepare Kinase/Peptide Mixture by diluting the kinase to 0.12 μg/mL and the Z-LYTE™ Tyr 2 peptide to 4 μM in 1.33× Kinase Buffer. Mix gently by pipetting.
Prepare ATP Solution by diluting the 10 mM of ATP in 1.33× Kinase Buffer to 1.88 mM.
• a. Add 2.5 μL of 4× test Cpds to each well except C1, C2, C3 wells • Add 2.5 μL of 8% DMSO to C1, C2, C3 wells • b. Put the 384-plate on ice • c. Add 5 μL of P/K mixture to each test Cpd wells and C1, C2 wells • d. Add 5 μL of PP Solution to C3 well • e. Add 2.5 μL of 1.33× kinase buffer to C1 and C3 wells • f. Add 2.5 μL of 4×ATP Solution to each test Cpd wells and C2 well, respectively. • Shake the plate for 30 Sec and centrifuge (1500 rpm, 1 min) • g. Seal the plate to protect from the light and incubate the plate for 1 hour at RT (25-30° C.).
• a. Add 5 μL of the Development solution to all wells • b. Shake the plate for 30 Sec and centrifuge (1500 rpm, 1 min) • c. Seal the plate to protect from the light and incubate the plate for 1 hour at RT (25-30° C.).
• a. […]
IC50 Value: determined with add-in software for Microsoft Excel, XLfit™ (version 2.0) from ID Business Solutions (Guildford, UK)

The next assay deals with RBL-2H3 cells. Description: IgE-induced Beta-hexosaminidase secretion in RBL-2H3 cells. The settings on record: Rattus norvegicus, RBL-2H3, IgE-induced Beta-hexosaminidase secretion, DNP-BSA stimulation. It counts as cell-based. The gist of the method:
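RBL-2H3 cells sensitized overnight with 0.5 ug/ml SPE-7 IgE, washed, preincubated with compound 20 min at 37° C, then stimulated with DNP-BSA (150 ng/mL stock) for 45 min. Released β-hexosaminidase measured on supernatant with 1 mM 4-nitrophenyl N-acetyl-β-D-glucosaminide, pH 4.5, 1.5 hr at 37° C; absorbance 405 nm after carbonate quench.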

Turning to `CC(C)(O)c1ccc(-c2cc3nccnc3c(OC[C@@H]3CN(S(C)(=O)=O)CCO3)n2)cc1` [Compound 219], the IC50 against Syk kinase was 0.032 µM and 0.028 µM; on Flt-3 it was 0.88 µM; in the assay on RBL-2H3 cells, 0.037 µM.
In the case of `CC(=O)N1CCO[C@H](COc2nc(-c3ccc4c(c3)CCOC4(C)C)cc3nccnc23)C1` [Compound 300], the IC50 amounted to 0.03 µM against Syk kinase, 0.885 µM against Flt-3 and 0.052 µM with RBL-2H3 cells.
